Source: patent US7125542B2, “Methods and compositions for treating conditions of the eye” (Massachusetts Eye and Ear Infirmary, priority 2000, dated 2006)
Where two headings read alike, the source gives them in different places.

Assays:
[1] = system: Bovine retinal capillary endothelial (BRCE) cells; assay: Cell survival, 1-week cell proliferation assay in BRCE cells; type: cell-based; settings: for Cellular Survival (%): BRCE
Method: (§1) Bovine retinal capillary endothelial (BRCE) cells (from Patricia A. D'Amore, Schepens Eye Research Institute, Boston, Mass.) and Human retinal pigment epithelial (RPE) cells (from Anthony P. Adamis, Massachusetts Eye & Ear Infirmary, Boston, Mass.) were grown at 37° C., 5% CO2 in Dulbecco's modified Eagle's medium (DMEM; Sigma, St. Louis, Mo.), 5% heat-inactivated fetal bovine serum (FBS, Gibco, Grand Island, N.Y.), supplemented with L-glutamine, penicillin, and streptomycin (Gibco Grand Island, N.Y.). Lutetium Texaphyrin (Lu-Tex) was obtained from Alcon Laboratories, Inc. (Fort Worth, Tex.) as a stock solution of 2 mg/ml, stable in the dark at 4° C., and used in accordance with the manufacturer's guidelines.
(§2) Cell survival was measured using a cell proliferation assay. Briefly, BRCE or RPE cells were plated at a density of 10^5 cells in DMEM with 5% FBS and incubated at 37° C. in 5% CO2. After eighteen hours, and if desired, recombinant human angiostatin (Calbiochem, La Jolla, Calif.) was added at a concentration of 500 ng/ml. Eighteen hours later, the medium was removed and replaced by 3 μg/ml Lu-Tex in complete media. Thirty minutes later, the cultures were exposed to timed irradiation using an argon/dye Photocoagulator at 732 nm and laser delivery system (model 920, Coherent Inc., Palo Alto, Calif.). Irradiance was delivered at a rate of […] to give a total dose of 5 to 20 J/cm^2, and irradiation time ranged from 7 to 28 minutes. After irradiation, the medium was removed and replaced with complete medium. Cultures were returned to the incubator for 7 days, after which cells were dispersed in trypsin, counted in a masked fashion, and the surviving fraction determined. Cultures were photographed at various times following Lu-Tex/PDT using a 16×-0.32 numeric aperture on a phase contrast inverted microscope (Diaphot, Nikon, Melville, N.Y.).
In order to assess the effect of combining angiostatin to Lu-Tex/PDT on BRCE cell survival, cells were pre-treated for 18 hours with 500 ng/ml angiostatin after which they were treated with Lu-Tex/PDT at various fluences. Cellular survival was measured by the 1-week cellular proliferation assay.

[2] = system: Human retinal pigment epithelial (RPE) cells; assay: Cell survival, 1-week cell proliferation assay in RPE cells; type: cell-based; settings: for Cellular Survival (%): RPE
Method: as §1, §2

[3] = system: BRCE cells; assay: Cellular morphology following PDT, BRCE cells; type: cell-based, Bovine; settings: one week after treatment
Method: (§3) Experiments were performed to establish how PDT effects the cellular morphology of BRCE and RPE cells. The cells were treated and exposed to PDT either alone or in combination with angiostatin as described in Example 1. Although cells appeared severely damaged immediately after PDT, subsequent recovery occurred in certain circumstances. One week after PDT, some cells disappeared while those that remained regained their spindle shape and their ability to attach.

[4] = system: RPE cells; assay: Cellular morphology following PDT, RPE cells; type: cell-based, Human; settings: after treatment
Method: as §3

[5] = typical; cited from earlier work
[6] = system: Caspase 3-like (DEVD-ase) protease; assay: Caspase 3-like (DEVD-ase) activation, Ac-DEVD-AFC cleavage in BRCE lysates; type: cell-based, Bovine
Method: (§4) In order to investigate the role of apoptosis in Lu-Tex/PDT mediated cell death in BRCE and RPE, the activation of Caspase 3-like (DEVD-ase) protease, a hallmark of apoptosis (Nicholson (1997) TIBS 22: 299–306), was monitored. The kinetics of activation were measured spectrofluorometrically by assaying the hydrolysis of a substrate that can be cleaved only by the caspase 3-like protease family members.
Various times after Lu-Tex/PDT, 10^6 cells were collected by centrifugation, and the washed cell pellet resuspended in 500 μl of ice-cold lysis buffer (pH 7.5) containing 10 mM Tris, 130 mM NaCl, 1% Triton X-100, 10 mM NaF, 10 mM NaPi, 10 mM NaPPi, 16 μg/ml benzamidine, 10 μg/ml phenanthroline, 10 μg/ml aprotinin, 10 μg/ml leupeptin, 10 μg/ml pepstatin and 4 mM 4(2-aminoethyl)-benzene-sulfanyl fluoride hydrochloride (AEBSF). Cellular lysates were stored in aliquots at −84° C. for later protease activity assay or Western blot analysis. A protein assay (Coomassie Plus protein assay (Pierce, Rockford, Ill.) with a bovine serum albumin (BSA) standard was used to assay protein concentration in cell extract.
(§5) In order to measure protease activity, aliquots containing 50 1 μg of cellular protein were incubated with 14 μM (final concentration N-acetyl (Asp-Glu-Val-Asp (SEQ. ID NO: 3)-(7-amino-4-trifluoromethly coumarin) (Ac-DEVD-AFC); (Pharmingen San Diego, Calif.) in 1 ml protease assay buffer pH 7.2 (20 mM piperazine-N-N^1-bis (2-ethanesulfuric acid) (PIPES), 100 mM NaCl, 10 mM dithiothreitol (DTT), 1 mM EDTA, 0.1%(w/v) 3-[(3-Cholamidopropyl) dimethyl ammonio]-1-propane sulfonate (CHAPS), and 10% sucrose) at 37° C. for 1 hour. Fluorescence was measured using a Perkin-Elmer MPF-44A spectrofluorometer (λexcitation, 400 nm; λemission 505 nm). Cellular protein served as the blank.
In order to examine the effect of combining angiostatin and Lu-Tex/PDT on DEVD-ase activation in BRCE cells, cells were treated with angiostatin alone, Lu-Tex/PDT alone and angiostatin/Lu-Tex/PDT, following which caspase 3-like activity was assayed as described above. Fluences of 20 and 40 J/cm^2 were used, corresponding to LD100 of combination angiostatin/Lu-Tex/PDT and Lu-Tex/PDT alone respectively. […] As in the case of BRCE cells treated with Lu-Tex/PDT alone, the rate of entry into apoptosis of BRCE cells treated with combination of angiostatin/Lu-Tex/PDT was time-dependent.

[7] = system: Caspase 3-like (DEVD-ase) protease; assay: Caspase 3-like (DEVD-ase) activation, Ac-DEVD-AFC cleavage in RPE lysates; type: cell-based, Human; settings: RPE, 10, 20 and 40 J/cm^2
Method: as §4, with “members. […]” for “members.”
as §5, with “Cellular protein served as the blank.” left out

[8] = system: Bax; assay: Western blot of Bcl-2 family members in BRCE cells after Lu-Tex/PDT; type: cell-based, Bovine; settings: after Lu-Tex/PDT at LD50
Method: (§6) In order to evaluate the expression of Bcl-2 family members in BRCE and RPE cells after Lu-Tex/PDT, BRCE and RPE cells were subjected to Lu-Tex/PDT and the resultant cellular lysates subjected to Western blot analysis for detection of the anti-apoptotic Bcl-2, Bcl-xL markers, and the pro-apoptotic Bax and Bak markers.
(§7) Cell lysates were produced as described in Example 3. Sodium dodecyl sulfate-polyacrylamide gel electrophoresis of proteins was performed with 12% SDS-polyacrylamide gels. All samples were boiled in denaturing sample buffer, and equal amounts of proteins were loaded per lane. Proteins were separated at room temperature under reducing conditions at 120 V. Western blot transfer of separated proteins was performed at room temperature, using polyvinylidene fluoride membranes at 50 mA for 1 hr. To verify equal protein loading, blots were stained with 0.1% ponceau red (Sigma) diluted in 5% acetic acid. Afterwards, blots were blocked for 1 hr in Tris buffered saline (TBS; 10 mM Tris-HCl, pH 7.5, and 150 mM NaCl) containing 5% non-fat dried milk. Next, the membranes were probed with an appropriate dilution (1:250 to 1:1000) of primary antibody in TBS containing 2.5% non-fat dried milk for one and a half hours. Mouse polyclonal antibodies against Bcl-2, Bcl-xL, Bax and Bak were purchased from Pharmingen. After incubation with primary antibody, the blots were washed for 30 minutes with frequent changes of TBS, blocked in 1% non-fat dried milk in TBS for 30 minutes, followed by incubation in a peroxidase-coupled secondary antibody for 1 hour in TBS containing 1% non-fat dried milk. The blots were washed for 1 hour with frequent changes of TBST (TBS, 0.1% Tween). Immunoblot analysis was performed using enhanced chemiluminescence plus Western blotting detection reagents (Amersham, Pharmacia Biotec Piscataway, N.J.) followed by exposure to x-ray film (ML Eastman Kodak, Rochester, N.Y.).

[9] = system: Bcl-2; assay: as above; type: cell-based, Bovine; settings: after Lu-Tex/PDT at LD50
Method: as §6, §7

[10] = system: Bak; assay: Western blot of Bcl-2 family members in RPE cells after Lu-Tex/PDT; type: cell-based, Human; settings: up to 4 hours post-PDT, then decline
Method: as §6
(§8) Cell lysates were produced as described in Example 3. Sodium dodecyl sulfate-polyacrylamide gel electrophoresis of proteins was performed with 12% SDS-polyacrylamide gels. All samples were boiled in denaturing sample buffer, and equal amounts of proteins were loaded per lane. Proteins were separated at room temperature under reducing conditions at 120 V. Western blot transfer of separated proteins was performed at room temperature, using polyvinylidene fluoride membranes at 50 mA for 1 hr. To verify equal protein loading, blots were stained with 0.1% ponceau red (Sigma) diluted in 5% acetic acid. Afterwards, blots were blocked for 1 hr in Tris buffered saline (TBS; 10 mM Tris-HCl, pH 7.5, and 150 mM NaCl) containing 5% non-fat dried milk. Next, the membranes were probed with an appropriate dilution (1:250 to 1:1000) of primary antibody in TBS containing 2.5% non-fat dried milk for one and a half hours. Mouse polyclonal antibodies against Bcl-2, Bcl-xL, Bax and Bak were purchased from Pharmingen. […]

[11] = system: Bcl-xL; assay: as above; type: cell-based, Human; settings: up to 4 hours post-PDT, then plateau
Method: as §6, §8

[12] = system: Human retinal pigment epithelial (RPE) cells; settings: cited from earlier work
[13] = stock solution of 2 mg/ml, in the dark at 4° C.; cited from earlier work
[14] = angiostatin alone 500 ng/ml, no PDT
[15] = fluence 5 J/cm^2, 3 μg/ml Lu-Tex, angiostatin 500 ng/ml where used, 7 days, mean ± SD
[16] = fluence 10 J/cm^2, 3 μg/ml Lu-Tex, angiostatin 500 ng/ml where used, 7 days, mean ± SD
[17] = fluence 20 J/cm^2, 3 μg/ml Lu-Tex, angiostatin 500 ng/ml where used, 7 days, mean ± SD

With Angiostatin the “Cellular Survival (%)” value [1, 14] was 87.39%, the “killing of BRCE cells” value ([1]; angiostatin alone, 500 ng/ml) was 12.61% and the “Cellular Survival (%)” value [2, 14] was 99.09%. For the same compound, the “cytotoxicity on human RPE cells” value ([2]; human angiostatin alone) was “no cytotoxicity was observed”, the “cellular morphology / fate of BRCE cells” value [3] was “continued to proliferate and reached confluence” and the “cellular morphology / fate of RPE cells” value [4] was “continued to proliferate and reached confluence”.

In the case of benzoporphyrin derivative, the “persistence in the target neovasculature” value [5] is listed as “about fifty” and the “time until present within the target neovasculature post administration” value [5] is listed as “one”.

In the case of CC(=O)[O-].CC(=O)[O-].CCc1c(CC)c2cc3nc(cnc4cc(OCCOCCOCCOC)c(OCCOCCOCCOC)cc4ncc4nc(cc1[n-]2)C(CCCO)=C4C)C(C)=C3CCCO.O.[Lu+3] [Lu-Tex/PDT, Lutetium Texaphyrin], the “Cellular Survival (%)” value [1, 15] is reported as 79.13 ± 4.05 (5J/cm^2) %, the “Cellular Survival (%)” value [1, 16] is reported as 53.17 ± 0.32 (10J/cm^2) % and the “Cellular Survival (%)” value [1, 17] is reported as 33.34 ± 2.26 (20J/cm^2) %. For the same compound, the dark toxicity ([1]; at the concentration of Lu-Tex used (3 μg/ml), no light) was “no dark toxicity was observed”, the “lethality of BRCE cells” value ([1]; fluence 40 J/cm^2) was 100% and the “lethal dose (LD100) for BRCE cells” value ([1]; fluence of light) was 40 J/cm^2. The “Cellular Survival (%)” value [2, 15] was 94.55 ± 1.60 (5J/cm^2) %, the “Cellular Survival (%)” value [2, 16] was 59.59 ± 3.56 (10J/cm^2) % and the “Cellular Survival (%)” value [2, 17] was 53.47 ± 3.18 (20J/cm^2) %. For the same compound, the “improvement of RPE cell survival post-PDT” value ([2]; light dose 20 J/cm^2 (instead of 40 J/cm^2)) was 20%, the “cellular morphology / fate of RPE cells” value [4] was “appeared unchanged” and the “increase of caspase 3-like activation in BRCE cells as compared to RPE cells” value ([6]; 10 J/cm^2 and 20 J/cm^2) was “about 50%”. For the same compound, the “caspase 3-like activation levels in BRCE relative to RPE cells” value ([6]; 40 J/cm^2) was 5 fold, the “caspase 3-like (DEVD-ase) activity, Lu-Tex/PDT (40 J/cm^2) compared with angiostatin/Lu-Tex/PDT (20 J/cm^2)” value ([6]; BRCE) was “increased levels” and the “earliest elevation of caspase 3-like activity post-Lu-Tex/PDT” value ([6]; BRCE, 10, 20 and 40 J/cm^2) was 10 min. For the same compound, the “time of peak caspase 3-like activity post-Lu-Tex/PDT” value ([6]; BRCE, 10, 20 and 40 J/cm^2) was 40 min, the “earliest elevation of caspase 3-like activity post-Lu-Tex/PDT” value [7] was 10 min and the “time of peak caspase 3-like activity post-Lu-Tex/PDT” value [7] was 40 min. The Bax protein level [8] was “upregulation”, the “cellular ratio of Bax to Bcl-2 protein” value [8] was “increase” and the Bcl-2 protein level [9] was “downregulation”. The Bak protein level [10] was “upregulation”, the Bcl-xL protein level [11] was “upregulation” and the RPE cell survival ([12]; fluence 20 J/cm^2, previous studies) was “about 43%”. The RPE cell survival ([12]; fluence 40 J/cm^2, previous studies) was about 21%, the “persistence in the target neovasculature” value [5] was “about twenty” and the “time until present within the target neovasculature post administration” value [5] was “one”. For the same compound, the “stability of stock solution” value [13] was “stable”.

For O=C([O-])c1c(Cl)c(Cl)c(Cl)c(Cl)c1-c1c2cc(I)c(=O)c(I)c-2oc2c(I)c([O-])c(I)cc12.[Na+].[Na+] [rose bengal], the “persistence in the target neovasculature” value [5] is listed as “about ten” and the “time until present within the target neovasculature post administration” value [5] is listed as “one”.

For C=Cc1c(C)c2cc3nc(c(CC(=O)N[C@@H](CC(=O)O)C(=O)O)c4[nH]c(cc5nc(cc1[nH]2)C(C)=C5CC)c(C)c4C(=O)O)[C@@H](CCC(=O)O)[C@@H]3C [N-aspartyl chlorin e6], the “persistence in the target neovasculature” value [5] is given as “about twenty” and the “time until present within the target neovasculature post administration” value [5] is given as “one”.
